Here are results for seven compounds from patent US20230286973A1, “PROTEIN SECRETION INHIBITORS” (KEZAR LIFE SCIENCES, priority 2020, published 2023).

The structures appear in SMILES notation. Like-named read-outs stand apart in the source and are kept apart here.

Data set [1] in a line: Liver Microsome Stability Assay (monkey). The settings on record: monkey liver microsomes, with NADPH, 1.0 uM compound. In general terms: Microsomes from liver hold many membrane-bound enzymes, among them those of drug oxidation.
Method: (§1) Stability of a compound was assessed in the presence of liver microsomes from various sources—mouse, rat, monkey and human liver microsomes. 1.0 uM compound, 0.4% DMSO in 0.1 M Potassium Phosphate with 1.0 mg/mL liver microsomes, were incubated at 37° C. with or without 1 mM NADPH. The samples were quenched at 0, and 30 minutes.
In data set [2] the test system is TNFα-FL/Gaussia Luciferase. The data set can be described thus: Dox Induced TNFα-FL-Gluc Assay. Format: cell-based. As to conditions: for IC50: 24 hr Dox induction, 293FRT/TO cells, read-out: 24 hr Dox Inducible TNFaFLGluc 293FRT/TO: Mean IC50; for 24 hr Dox Inducible TNFaFLGluc 293FRT/TO: TNF/PD1: ratio of TNFaFLGluc IC50 to PD1ssGluc IC50. The method in brief:
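Doxycycline-inducible Gaussia luciferase-tagged full-length TNFα (1-233) was expressed in stable Flp-In 293 T-REx cells. Compounds were co-added with doxycycline and incubated at 37 °C, 5% CO2.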

The test system of data set [3] is PD1-ss+10aa/Gaussia Luciferase. The data set can be described thus: Dox-Induced PD1-ss-Gluc Assay. Format: cell-based. As to conditions: 24 hr Dox induction, 293FRT/TO cells, read-out: 24 hr Dox Inducible PD1ssGluc 293FRT/TO: Mean IC50. The procedure, abridged:
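Doxycycline-induced expression of a PD1-ss+10aa/Gaussia luciferase reporter is measured in stable Flp-In 293 T-REx cells. Compound dilutions containing doxycycline are added one day after plating and incubated at 37 °C, 5% CO2. Values for unassigned stereocentres refer to stereoisomer mixtures.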

Data set [4] can be described thus: Liver Microsome Stability Assay (rat). The settings on record: rat liver microsomes, with NADPH, 1.0 uM compound.
Method: as §1
Data set [5] in a line: Liver Microsome Stability Assay (human). As to conditions: human liver microsomes, with NADPH, 1.0 uM compound.
Method: as §1
For data set [6], the system named is HER3-ss+4aa/Gaussia Luciferase. The data set can be described thus: Dox-Induced Her3-ss-Gluc Assay. Format: cell-based. The settings on record: 24 hr Dox induction, 293FRT/TO cells, read-out: 24 hr Dox Inducible Her3(ss + 4)Gluc 293FRT/TO: Mean IC50. The method in brief: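 Reporter line: Flp-In 293 T-REx, T-REx-regulated HER3-ss+4aa fused to Gaussia luciferase. Compound co-added with doxycycline after overnight plating, 37° C., 5% CO2.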

Data set [7] concerns multiple myeloma cell line U266B1. The data set can be described thus: U266 Cell Viability Assay. Format: cell-based, human. The settings on record: Homo sapiens, U-266, 48 h, U266B1 cells, Celltiter-Glo. The method in brief: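 Viability is measured as luciferase signal from CellTiter-Glo following a 48-hour incubation with compound at 37° C. under 5% CO2. Where structures lack drawn stereochemistry, values refer to stereoisomer mixtures.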

Data set [8] relates to IL-2-FL/Gaussia Luciferase. The data set can be described thus: Dox Induced IL2-FL-Gluc Assay. Format: cell-based. As to conditions: for IC50: 24 hr Dox induction, 293FRT/TO cells, read-out: 24 hr Dox Inducible IL2FLGluc 293FRT/TO: Mean IC50; for 24 hr Dox Inducible IL2FLGluc 293FRT/TO: IL2/PD1: ratio of IL2FLGluc IC50 to PD1ssGluc IC50. The method in brief: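 Doxycycline induces an IL-2(1-153)–Gaussia luciferase fusion in a stable Flp-In 293 T-REx line. Compound exposure runs alongside induction at 37° C.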

Data set [9] can be described thus: Liver Microsome Stability Assay (mouse). As to conditions: mouse liver microsomes, with NADPH, 1.0 uM compound.
Method: as §1
For data set [10], the system named is multiple myeloma cell line NCI-H929. The data set can be described thus: H929 Cell Viability Assay. Format: cell-based, human. The settings on record: Homo sapiens, NCI-H929, 48 h, NCI-H929 cells, Celltiter-Glo. The procedure, abridged: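 Viability is scored by CellTiter-Glo luminescence following a 48-hour treatment at 37° C. Data for structures shown without stereochemistry refer to stereoisomer mixtures.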
Background: Cellular ATP, detected with luciferase, serves as a proxy for viable cell number.

The mark [11] stands for this setting: '<=>' given where both are I.A.

What is called EC50 is the concentration giving half of the maximal effect. For `Cc1cc(C(=O)Nc2nc(/C=C/c3cn(C(C)C)cn3)cs2)n(Cc2ccnc(F)c2)c1` [Compound B99, (E)-1-((2-fluoropyridin-4-yl)methyl)-N-(4-(2-(1-isopropyl-1H-imidazol-4-yl)vinyl)thiazol-2-yl)-4-methyl-1H-pyrrole-2-carboxamide], the “Liver Microsome Stability (Multiple Species): Monkey - % Remaining after 30 min w/NADPH” value in [1] is on record as 2.99%. Also, the IC50 in data set [2] is above 25000 nM; in data set [3] it was 880 nM; in data set [6] it was 10100 nM; in data set [8] it was above 25000 nM. In addition, in data set [2], the “24 hr Dox Inducible TNFaFLGluc 293FRT/TO: TNF/PD1” value is listed as above 28.4. Moreover, the “Liver Microsome Stability (Multiple Species): Rat - % Remaining after 30 min w/NADPH” value in [4] was 49.7%. Moreover, in data set [5], the “Liver Microsome Stability (Multiple Species): Human - % Remaining after 30 min w/NADPH” value worked out at 4.91%. The EC50 in [7] and in [10] was above 25000 nM in each case. The “24 hr Dox Inducible IL2FLGluc 293FRT/TO: IL2/PD1” value in [8] is reported as above 28. The “Liver Microsome Stability (Multiple Species): Mouse - % Remaining after 30 min w/NADPH” value in data set [9] is listed as 49.5%.
Consider `O=C(Nc1nc([C@H]2CCCN2c2ccc(O[C@H]3CCOC3)cc2)cs1)c1cccn1Cc1ccncc1` [Compound A4, 1-(pyridin-4-ylmethyl)-N-(4-((R)-1-(4-(((S)-tetrahydrofuran-3-yl)oxy)phenyl)pyrrolidin-2-yl)thiazol-2-yl)-1H-pyrrole-2-carboxamide], for which the “Liver Microsome Stability (Multiple Species): Monkey - % Remaining after 30 min w/NADPH” value in data set [1] is 0.36%. Further, the IC50 came out at 155 nM in [2], 16 nM in [3], 26.8 nM in data set [6] and 25.7 nM in [8]. In addition, the “24 hr Dox Inducible TNFaFLGluc 293FRT/TO: TNF/PD1” value in [2] is reported as 9.69. Moreover, in data set [4], the “Liver Microsome Stability (Multiple Species): Rat - % Remaining after 30 min w/NADPH” value came out at 15.4%. Also, in data set [5], the “Liver Microsome Stability (Multiple Species): Human - % Remaining after 30 min w/NADPH” value stood at 4.21%. The EC50 in data set [7] is above 25000 nM; in data set [10] it was 430 nM. Besides, the “24 hr Dox Inducible IL2FLGluc 293FRT/TO: IL2/PD1” value in data set [8] was found to be 1.6. Further, in data set [9], the “Liver Microsome Stability (Multiple Species): Mouse - % Remaining after 30 min w/NADPH” value is 9.36%.
Consider `Cc1cccc2nc(/C=C/c3csc(NC(=O)c4cccn4Cc4ccnc(F)c4)n3)cn12` [Compound B70, (E)-1-((2-fluoropyridin-4-yl)methyl)-N-(4-(2-(5-methylimidazo[1,2-a]pyridin-2-yl)vinyl)thiazol-2-yl)-1H-pyrrole-2-carboxamide], for which the “Liver Microsome Stability (Multiple Species): Monkey - % Remaining after 30 min w/NADPH” value in [1] is given as 0.19%. Besides, the IC50 in [2] is above 25000 nM; in [3] it was 499 nM; in data set [6], above 25000 nM; in data set [8], above 25000 nM. For the same compound, the “24 hr Dox Inducible TNFaFLGluc 293FRT/TO: TNF/PD1” value in [2] was above 50.1. The “Liver Microsome Stability (Multiple Species): Rat - % Remaining after 30 min w/NADPH” value in data set [4] stood at 1.37%. Moreover, the “Liver Microsome Stability (Multiple Species): Human - % Remaining after 30 min w/NADPH” value in data set [5] stood at 0.35%. Further, the EC50 in data set [7] and in data set [10] was above 25000 nM throughout. Further, the “24 hr Dox Inducible IL2FLGluc 293FRT/TO: IL2/PD1” value in data set [8] is above 50. In data set [9], the “Liver Microsome Stability (Multiple Species): Mouse - % Remaining after 30 min w/NADPH” value was 2.19%.
For the compound `O=C(Nc1nc([C@H]2CCCN2c2ccccc2)cs1)c1cccn1CCCC1COC1` [Compound C116, (R)-1-(3-(oxetan-3-yl)propyl)-N-(4-(1-phenylpyrrolidin-2-yl)thiazol-2-yl)-1H-pyrrole-2-carboxamide], the “Liver Microsome Stability (Multiple Species): Monkey - % Remaining after 30 min w/NADPH” value in [1] amounted to 6.55%. For the same compound, the IC50 in data set [2] (mean) came out at 7540 nM; in [3] (mean), 1030 nM; in data set [6] (mean), 1060 nM; in data set [8] (mean), 1590 nM. Further, in data set [2] (setting [11]), the “24 hr Dox Inducible TNFaFLGluc 293FRT/TO: TNF/PD1” value amounted to 7.3. In addition, the “Liver Microsome Stability (Multiple Species): Rat - % Remaining after 30 min w/NADPH” value in [4] was determined as 6.02%. The “Liver Microsome Stability (Multiple Species): Human - % Remaining after 30 min w/NADPH” value in data set [5] was determined as 24.8%. In addition, the EC50 in data set [7] and in data set [10] was above 25000 nM in each case. Also, the “24 hr Dox Inducible IL2FLGluc 293FRT/TO: IL2/PD1” value in data set [8] (setting [11]) was 1.5. Besides, the “Liver Microsome Stability (Multiple Species): Mouse - % Remaining after 30 min w/NADPH” value in data set [9] worked out at 5.51%.
For `Cc1cnccc1Cn1cccc1C(=O)Nc1nc([C@H]2CCCN2c2ccccc2)cs1` [Compound A53, (R)-1-((3-methylpyridin-4-yl)methyl)-N-(4-(1-phenylpyrrolidin-2-yl)thiazol-2-yl)-1H-pyrrole-2-carboxamide], in data set [1], the “Liver Microsome Stability (Multiple Species): Monkey - % Remaining after 30 min w/NADPH” value worked out at 0.33%. For the same compound, the IC50 worked out at 301 nM in [2], 23.7 nM in [3], 31.5 nM in data set [6] and 54.3 nM in data set [8]. In addition, in data set [2], the “24 hr Dox Inducible TNFaFLGluc 293FRT/TO: TNF/PD1” value was found to be 12.7. Also, the “Liver Microsome Stability (Multiple Species): Rat - % Remaining after 30 min w/NADPH” value in [4] is reported as 0.63%. For the same compound, the “Liver Microsome Stability (Multiple Species): Human - % Remaining after 30 min w/NADPH” value in data set [5] came out at 1.11%. The EC50 was above 25000 nM in [7] and 20600 nM in data set [10]. The “24 hr Dox Inducible IL2FLGluc 293FRT/TO: IL2/PD1” value in [8] was 2.3. The “Liver Microsome Stability (Multiple Species): Mouse - % Remaining after 30 min w/NADPH” value in [9] is given as 3.47%.
Consider `O=C(Nc1nc(/C=C/c2ccon2)cs1)c1cccn1Cc1ccncc1` [Compound B5, (E)-N-(4-(2-(isoxazol-3-yl)vinyl)thiazol-2-yl)-1-(pyridin-4-ylmethyl)-1H-pyrrole-2-carboxamide], for which the “Liver Microsome Stability (Multiple Species): Monkey - % Remaining after 30 min w/NADPH” value in data set [1] is recorded as 0.47%. The IC50 is above 25000 nM in data set [2], 2160 nM in data set [3], above 25000 nM in data set [6] and above 25000 nM in [8]. In addition, the “24 hr Dox Inducible TNFaFLGluc 293FRT/TO: TNF/PD1” value in data set [2] is given as above 11.6. The “Liver Microsome Stability (Multiple Species): Rat - % Remaining after 30 min w/NADPH” value in data set [4] was found to be 0.69%. Further, the “Liver Microsome Stability (Multiple Species): Human - % Remaining after 30 min w/NADPH” value in data set [5] turned out to be 0.87%. Further, the concentration giving a half-maximal response (EC50) in [7] and in data set [10] was above 25000 nM throughout. Besides, the “24 hr Dox Inducible IL2FLGluc 293FRT/TO: IL2/PD1” value in data set [8] was 12. For the same compound, in [9], the “Liver Microsome Stability (Multiple Species): Mouse - % Remaining after 30 min w/NADPH” value was found to be 1.26%.
For `COC(=O)Nc1ccc(N2CCC[C@@H]2c2csc(NC(=O)c3cccn3Cc3ccnc(F)c3)n2)cc1` [Compound A144, methyl (R)-(4-(2-(2-(1-((2-fluoropyridin-4-yl)methyl)-1H-pyrrole-2-carboxamido)thiazol-4-yl)pyrrolidin-1-yl)phenyl)carbamate], the “Liver Microsome Stability (Multiple Species): Monkey - % Remaining after 30 min w/NADPH” value in data set [1] was determined as 10.7%. The IC50 came to 5.9 nM in data set [2], 0.36 nM in data set [3], 0.81 nM in data set [6] and 1.33 nM in [8]. Further, in data set [2], the “24 hr Dox Inducible TNFaFLGluc 293FRT/TO: TNF/PD1” value is 16.3. Also, in [4], the “Liver Microsome Stability (Multiple Species): Rat - % Remaining after 30 min w/NADPH” value was determined as 34%. Moreover, in data set [5], the “Liver Microsome Stability (Multiple Species): Human - % Remaining after 30 min w/NADPH” value is on record as 36.4%. For the same compound, the EC50 was above 25000 nM in data set [7] and 15.9 nM in data set [10]. Further, the “24 hr Dox Inducible IL2FLGluc 293FRT/TO: IL2/PD1” value in [8] was 3.7. The “Liver Microsome Stability (Multiple Species): Mouse - % Remaining after 30 min w/NADPH” value in [9] was 20.2%.
